{"source": "patent US20050203013A1", "about": "“Methods for inhibiting vascular permeability” (priority 2002, published 2005)", "key": {"[1]": {"experiment": "Water solubility", "format": "physicochemical", "description": "To evaluate the biological activity of HPMA-TNP-470, the following assays were performed: […]"}, "[2]": {"test_system": "vesiculo-vacuolar organelles and inter-endothelial junctions", "experiment": "Electron microscopy of skin venules with ferritin tracer", "format": "in vivo, SCID mice", "conditions": "uninjected skin or skin injected with buffer", "description": "SCID mice were treated for three days with TNP-470 (30 mg/kg) or saline, following which anionic Ferritin tracer was injected i.v. into mice and 50 μl of human VEGF165 (1 ng/μl), or 50 μl of PBS were injected intradermally into pre-shaved flank skin. After 15 min, animals were euthanized by cervical dislocation. Skin test and control sites were excised and fixed by immersion for 4 hours in freshly prepared 2.0% paraformaldehyde-2.5% glutaraldehyde-0.025% calcium chloride in 0.1 M sodium cacodylate buffer, pH 7.4. Tissues were postfixed for 2 h in 1.5% sym-collidine-buffered osmium tetroxide, stained en bloc with uranyl acetate, dehydrated in a graded series of alcohols, and embedded in Spurr resin as previously described (Dvorak et al., 1996; Feng et al., 1996). Thin sections were then cut, collected on carbon-Formvar-coated single slot grids, and viewed in an electron microscope (CM10; Philips, Eindhoven, The Netherlands)."}, "[3]": {"test_system": "BCE cells", "experiment": "Junction protein staining of BCE cells treated with TNP-470", "format": "cell-based, Bovine", "conditions": "3 days in culture, stimulated by VEGF or PAF", "description": "BCE cells were grown on a coverslip glass in a 24-well plate (200,000 cells/well) in DMEM+10% BCS+3 ng/ml bFGF. Cells were treated with TNP-470 for 3 days in culture. Cells were stimulated with VEGF (5 ng/ml) or PAF (100 nM) for 20 min. Cells were stained for occludin, claudin, ZO-1, beta-catenin and VE-cadherin with fluorescent antibodies."}, "[4]": {"test_system": "VEGFR-2", "experiment": "VEGFR-2 phosphorylation in HUVEC", "format": "cell-based, Human", "conditions": "5 ng/ml for 2 hours", "description": "Serum-starved (0.1% FBS in EBM-2 media for 24 hours) HMVEC-d or HUVEC were treated with 5 ng/ml TNP-470 and HPMA copolymer-TNP-470 at 37° C. for 2 hours, and then stimulated with 10 ng/ml of VEGF for 5 minutes. Stimulation was stopped by adding cold PBS. […] After washing the beads with precipitation buffer, immunoprecipitates were resuspended in 2× SDS sample buffer for Western blot analysis with an antibody against phosphorylated tyrosine (pTyr)."}, "[5]": {"test_system": "HMVEC-d cells", "experiment": "Cell proliferation assay, HMVEC-d", "format": "cell-based, Human", "description": "(§1) HMVEC-d cells were trypsinized (0.05% trypsin) and resuspended (15,000 cells/ml) in EBM-2 supplemented with 5% fetal bovine serum (FBS), plated onto gelatinized 24-well culture plates (0.5 ml/well), and incubated for 24 hours (37° C., 5% CO2). The media was replaced with 0.5 ml of complete media (serum and growth factors; EGM-2 MV), and test substances were applied. Cells were challenged with free or conjugated TNP-470 (0.01 pg/ml to 1 mg/ml TNP-470-equivalent concentration). Control cells were grown with or without growth factors. U87 glioblastoma cells were washed with PBS, trypsinized and resuspended (5,000 cells/ml) in DMEM supplemented with 10% FBS, plated onto 24-well culture plates (0.5 ml/well), and incubated for 24 hours (37° C., 5% CO2). The media was replaced with 0.5 ml of DMEM and 10% FBS, and the test sample applied. Cells were challenged with free or conjugated TNP-470 (0.01 pg/ml to 1 mg/ml TNP-470-equivalent concentration). Control cells were grown with or without 10% FBS. Both cell types were incubated for 72 hours, followed by trypsinization, resuspension in Hematall (Fisher Scientific, Pittsburgh, Pa.), and counted in a Coulter counter."}, "[6]": {"test_system": "U87 glioblastoma cells", "experiment": "Cell proliferation assay, U87", "format": "cell-based, human", "conditions": "72 hours", "description": "as §1"}, "[7]": {"test_system": "Ca2+ influx in HMVEC-d", "experiment": "Intracellular Ca2+ release", "format": "cell-based, Human", "description": "For detaching cells, serum-starved HMVEC-d were incubated with 4 ml of collagenase solution (0.2 mg/ml collagenase, 0.2 mg/ml soybean trypsin inhibitor, 1 mg/ml BSA, and 2 mM EDTA in PBS) at 37° C. for 30 minutes. Cell pellets were washed with 2 ml of Ca^2+ buffer (5 mM KCl, 140 mM NaCl, 1 mM CaCl2, 1 mM MgCl2, 5.6 mM glucose, 0.1% BSA, 0.25 mM sulfinpyrazone, and 10 mM HEPEs, pH 7.5) and then resuspended in 2 ml of the same buffer containing 5 ng/ml TNP-470. The cells were incubated at 37° C. for 2 hours in suspension. During the last 30 minutes of incubation, 1 μg/ml Fura-2-AM Fura 2-AM (acetoxymethyl ester derivative of Fura 2) and 0.02% pluronic F-127 were added to the suspension. Cells (106) were collected and resuspended in 2 ml Ca^2+ buffer for VPF/VEGF (10 ng/ml), PAF (20 nM), or histamine ([…]) stimulation. Intracellular Ca^2+ concentrations were measured with the DeltaScan Illumination System (Photon Technology International Inc.) using Felix software, while rocking the tubes."}, "[8]": {"test_system": "LLC, A2058, MCF-7, MDA-MB-231, BXPC3, U87 tumors", "conditions": "cited from earlier work"}}, "note": "Where two headings read alike, the source gives them in different places.", "data": [{"compound": "CO[C@@H]1[C@H](OC(=O)NC(=O)CCl)CC[C@]2(CO2)[C@H]1[C@@]1(C)O[C@@H]1CC=C(C)C", "note": "[TNP-470]", "values": [{"measurement": "water solubility", "setting": "[1]", "value": "not water-soluble"}, {"measurement": "extravasation of circulating ferritin via VVOs", "setting": "[2]", "value": "reduced"}, {"measurement": "effect on occludin, claudin, ZO-1, beta-catenin or VE-cadherin", "setting": "[3]", "value": "did not see any significant and reproducible effect"}, {"measurement": "VPF/VEGF-induced phosphorylation of VEGFR-2", "setting": "[4]", "value": "significantly reduced"}, {"measurement": "endothelial cell vs tumor cell inhibitory concentration difference", "setting": "[5]; HMVEC-d vs U87", "value": "4 orders of magnitude"}, {"measurement": "concentration inhibiting growth factor-induced proliferation without cytotoxicity", "setting": "[5]; HMVEC-d, 72 hours", "value": "≥ 1", "unit": "pg/mL"}, {"measurement": "cytotoxic concentration", "setting": "[5]; HMVEC-d, 72 hours", "value": "higher than 1 μg/ml"}, {"measurement": "concentration inhibiting serum-induced proliferation (cytostatic effect)", "setting": "[6]; U87 glioblastoma cells", "value": "higher than 10 ng/ml"}, {"measurement": "cytotoxic concentration", "setting": "[6]; U87 tumor cells", "value": "higher than 100 μg/ml"}, {"measurement": "Ca2+ influx induced by PAF", "setting": "[7]", "value": "decreased"}, {"measurement": "Ca2+ influx induced by VPF/VEGF", "setting": "[7]", "value": "decreased"}, {"measurement": "Ca2+ influx induced by histamine", "setting": "[7]", "value": "decreased"}, {"measurement": "tumor growth inhibition", "setting": "[8]; U87 glioblastoma in mice", "value": 95, "unit": "%"}, {"measurement": "tumor growth inhibition", "setting": "[8]; all tumor models studied", "value": "60-95%"}]}]}
